The values below come from PMC5746462 (Journal of medicinal chemistry, 2017).

For data set [1] the following is noted: male, Swiss Albino, mouse, in vivo, 10 mg/kg.
A short description of the next data set: in vivo. Conditions: male, Swiss Albino, mouse, po, 10 mg/kg.

Broadly, the bioavailability is the share of a dose that reaches the circulation, judged against a reference dose that is usually intravenous. Read a low bioavailability as little systemic uptake. Regarding `CC(C)(C)n1nc(Oc2cccc(Cl)c2)c2c(N)ncnc21` [Compound 2], the “%F (oral availability)” value in data set [1] came out at 31%. Moreover, the bioavailability in “in vivo” lay within 25 to 30%.
